Columns and labels:
[1] = tested on: pS2, cyclin D1, c-Myc, SP-1, E2F1, PgR; assay: Quantitative RT-PCR of ERα target genes, MCF-7; type: cell-based, human
[2] = tested on: pS2, cyclin D1, c-Myc, SP-1, E2F1, PgR; assay: Quantitative RT-PCR of ERα target genes, KPL-3C; type: cell-based, human; conditions: 24 hours
[3] = Stability of ERAP1-peptide in MCF-7 cells, immunoblotting; type: in vitro ADME, human
Method: FIG. 37 is a diagram illustrating the results of evaluations for the stability of the ERAP1-peptide and the influence of the ERAP1-peptide on cellular E2. […] MCF-7 cells were treated with 10 μM HA-tagged ERAP1-peptide. Then, immediately, the cells were temporally stimulated with 10 nM E2. The data are standardized with β-actin, and show the ratio when the value at 1 hour (n=1, 3) or at 3 hours (n=2) is designated as 100. […] MCF-7 cells were treated with 10 μM ERAP1-peptide. Then, immediately, the cells were temporally stimulated with 10 nM E2. The cell lysate was centrifuged, and then the supernatant and a precipitate lysed with methanol were mixed (final concentration of methanol: 10%), and the cellular E2 concentration was measured with a commercially available kit (17β-estradiol ELISA kit, Wako Pure Chemical Industries, Ltd.).

[4] = tested on: estrogen-dependent gene expression in MCF-7 cells; assay: Microarray transcriptome analysis, MCF-7; type: cell-based, human; conditions: for Fold change: E2 alone/E2 + peptide
Method: MCF-7 cells were treated with 10 μM ERAP1-peptide (Peptide) and the ERAP1-scramble peptide (scrPeptide). Then, immediately, the cells were stimulated with 10 nM E2 for 1 hour. Subsequently, the obtained cell lysate solution was digested with trypsin and subjected to 2DICAL. […] MCF-7 cells were treated with 10 μM ERAP1-peptide. Then, immediately, the cells were stimulated with 10 nM E2 for 5, 10 and 15 hours. Then, RNA extraction and then Cy3-cRNA synthesis were performed, and the Cy3-cRNA was subjected to the microarray. The data were statistically analyzed by GeneSpring software, and the ratio to the value at 0 hour was calculated. **P<0.01.
MCF-7 cells were treated with 10 μM ERAP1-peptide. Then, immediately the cells were stimulated with 10 nM E2. Then, RNA extraction was performed. Cy3 labeled cRNA was synthesized with Low Input Quick Amp Labeling Kit (Agilent Technologies, Loveland, Colo., USA) and hybridized with a custom microarray at 65° C. for 17 hours. The microarray was washed. Then, the product hybridized was measured with a microarray scanner (Agilent). The results thereof were digitized with Future Extraction software (Agilent). The data were statistically analyzed with GeneSpring software (Agilent), and the ratio to the value at 0 hour was calculated.

CSCC[C@H](NC(=O)[C@H](CCC(N)=O)NC(=O)[C@H](CCCNC(=N)N)NC(=O)[C@H](CCCNC(=N)N)NC(=O)[C@H](CCCNC(=N)N)NC(=O)[C@H](CCCNC(=N)N)NC(=O)[C@H](CCCNC(=N)N)NC(=O)[C@H](CCCNC(=N)N)NC(=O)[C@H](CCCNC(=N)N)NC(=O)[C@H](CCCNC(=N)N)NC(=O)[C@H](CCCNC(=N)N)NC(=O)[C@H](CCCNC(=N)N)NC(=O)[C@@H](N)CCCNC(=N)N)C(=O)N[C@@H](CC(C)C)C(=O)N[C@@H](CO)C(=O)N[C@@H](CC(=O)O)C(=O)N[C@@H](CC(C)C)C(=O)N[C@H](C(=O)N[C@@H](CC(C)C)C(=O)N[C@@H](CCC(N)=O)C(=O)N[C@@H](CC(C)C)C(=O)N[C@@H](CCCNC(=N)N)C(=O)N[C@@H](CCC(N)=O)C(=O)N[C@@H](CCCNC(=N)N)C(=O)O)[C@@H](C)O [ERAP1-peptide]
expression of ERα target genes ([1]; after 24 hours): expression of any of the genes was remarkably suppressed | time at which significant expression suppression effect was first recognized ([1]; after addition of the peptide): 6 h | expression of ERα target genes [2]: remarkable suppression for expression of all of these genes | residual percentage of the ERAP1-peptide ([3]; 24 hours after the administration, on average): 84% | residual percentage of the ERAP1-peptide ([3]; after 30 hours): 56% | residual percentage of the ERAP1-peptide ([3]; after 36 hours): 58% | residual percentage of the ERAP1-peptide ([3]; after 48 hours): 54% | half-life ([3]; human, in MCF-7 cells): ~30 h | change of mRNA expressions ([4]; 10 μM, 10 nM E2, versus E2): decreased significantly and genome-widely | Fold change ([4]; gene ADCY1): 5.92 | Fold change ([4]; gene AKR1C1): 7.79 | Fold change ([4]; gene AKR1C3): 6.37 | Fold change ([4]; gene AKR1C4): 6.00 | Fold change ([4]; gene ANKS6): 9.00 | Fold change ([4]; gene ARHGAP36): 7.08 | Fold change ([4]; gene BASP1): 8.01 | Fold change ([4]; gene BCAS3): 5.92 | Fold change ([4]; gene BMP5): 7.72 | Fold change ([4]; gene BMP7): 8.40 | Fold change ([4]; gene BTG3): 9.06 | Fold change ([4]; gene C1orf59): 8.43 | Fold change ([4]; gene C6orf150): 5.95 | Fold change ([4]; gene C13orf18): 5.79 | Fold change ([4]; gene CA2): 9.87 | Fold change ([4]; gene CALB2): 6.05 | Fold change ([4]; gene CALHM2): 8.63 | Fold change ([4]; gene CALML5): 6.39 | Fold change ([4]; gene CAV1): 7.44 | Fold change ([4]; gene CAV2): 6.63 | Fold change ([4]; gene CCDC83): 6.76 | Fold change ([4]; gene CEACAM5): 6.84 | Fold change ([4]; gene CMTM3): 7.06 | Fold change ([4]; gene CNKSR3): 6.27 | Fold change ([4]; gene CTNND2): 6.83 | Fold change ([4]; gene CXCR7): 10.15 | Fold change ([4]; gene CYBA): 9.51 | Fold change ([4]; gene DCLK1): 7.84 | Fold change ([4]; gene DDX43): 8.53 | Fold change ([4]; gene DPYSL5): 5.76 | Fold change ([4]; gene ECHDC1): 7.73 | Fold change ([4]; gene ELOVL2): 7.14 | Fold change ([4]; gene FABP5): 6.38 | Fold change ([4]; gene FAM189A2): 6.33 | Fold change ([4]; gene FZD6): 7.54 | Fold change ([4]; gene GPER): 7.51 | Fold change ([4]; gene GSTT1): 7.93 | Fold change ([4]; gene HAR1B): 7.11 | Fold change ([4]; gene HMCN1): 7.54 | Fold change ([4]; gene HPDL): 7.68 | Fold change ([4]; gene KCNJ3): 8.31 | Fold change ([4]; gene KCNJ8): 6.44 | Fold change ([4]; gene KCNQ1OT1): 6.60 | Fold change ([4]; gene KIF1A): 7.12 | Fold change ([4]; gene KLK6): 5.98 | Fold change ([4]; gene KLK11): 8.08 | Fold change ([4]; gene LOC389332): 6.52 | Fold change ([4]; gene LOC654433): 6.72 | Fold change ([4]; gene LOC732272): 7.09 | Fold change ([4]; gene LOC100508679): 9.85 | Fold change ([4]; gene LPIN2): 6.27 | Fold change ([4]; gene LRRC10B): 7.17 | Fold change ([4]; gene LXN): 11.09 | Fold change ([4]; gene LYPD1): 6.66 | Fold change ([4]; gene MAGED4B): 6.80 | Fold change ([4]; gene MALL): 6.05 | Fold change ([4]; gene MARCKS): 6.99 | Fold change ([4]; gene ME1): 6.91 | Fold change ([4]; gene MEST): 8.84 | Fold change ([4]; gene MUCL1): 6.13 | Fold change ([4]; gene NCRNA00052): 7.27 | Fold change ([4]; gene NUP210L): 7.84 | Fold change ([4]; gene OOEP): 6.57 | Fold change ([4]; gene PCDH10): 5.78 | Fold change ([4]; gene PDGFRL): 5.77 | Fold change ([4]; gene PM20D2): 6.56 | Fold change ([4]; gene PMP22): 5.93 | Fold change ([4]; gene POTEB): 7.70 | Fold change ([4]; gene POTED): 6.82 | Fold change ([4]; gene PPARG): 7.30 | Fold change ([4]; gene RAMP1): 5.82 | Fold change ([4]; gene RAMP3): 7.25 | Fold change ([4]; gene RGS22): 7.22 | Fold change ([4]; gene RP86KA3): 7.84 | Fold change ([4]; gene S100A14): 6.73 | Fold change ([4]; gene SALL4): 6.60 | Fold change ([4]; gene SDR42E1): 8.01 | Fold change ([4]; gene SERPINA5): 5.87 | Fold change ([4]; gene SLC6A14): 8.73 | Fold change ([4]; gene SLC7A2): 8.32 | Fold change ([4]; gene SLC27A6): 8.00 | Fold change ([4]; gene SNX7): 7.48 | Fold change ([4]; gene SOX3): 6.52 | Fold change ([4]; gene SPANXA1): 6.68 | Fold change ([4]; gene SPANXB2): 6.55 | Fold change ([4]; gene ST8SIA4): 6.99 | Fold change ([4]; gene TFPI2): 6.82 | Fold change ([4]; gene THBD): 5.97 | Fold change ([4]; gene TLR2): 5.74 | Fold change ([4]; gene TMEM26): 6.66 | Fold change ([4]; gene TMEM64): 6.46 | Fold change ([4]; gene TMEM150C): 7.57 | Fold change ([4]; gene TOX2): 6.29 | Fold change ([4]; gene TPM4): 7.60 | Fold change ([4]; gene TSPYL5): 9.50 | Fold change ([4]; gene UGT1A6): 5.78 | Fold change ([4]; gene UGT1A8): 6.60 | Fold change ([4]; gene WISP2): 6.73 | Fold change ([4]; gene XIST): 8.53 | Fold change ([4]; gene ZNF618): 6.39

Reference: patent US9725490B2, “ERAP1-derived peptide and use thereof” (TOKUSHIMA UNIVERSITY, priority 2011, dated 2017)
